# Assay results from patent publication US20250064758A1 (priority 2023, published 2025).
# Tests used:
# Assay type in all cases: cell-based
# [1] = system: SARS-COV-2 Omicron variant BA.5
# [2] = system: SARS-COV-2 Delta variant B.1.617.2
# [3] = system: SARS-COV-2 Omicron variant BA.4
compound,measurement,setting,value
CC(C)NCC(O)c1ccc(O)c(O)c1 (stereo not drawn) [isoproterenol],SARS-CoV-2 replication fitness (viral gene copies in cell supernatant),[1],didn't affect
"CC(C)NCC(O)COc1cccc2ccccc12 (stereo not drawn) [Propranolol, 1-(isopropylamino)-3-(1-naphthyloxy)-2-propanol]",reduction in viral load,[2],2-3 log10
same,reduction in viral load,[3],2-3 log10
same,reduction in viral load,[1],2-3 log10
CC(C)NCC(O)COc1ccc(CC(N)=O)cc1 (stereo not drawn) [atenolol],SARS-CoV-2 replication fitness (viral gene copies in cell supernatant),[1],didn't affect
CC(C)(C)NCC(O)COc1cccc2c1CC(O)C(O)C2 (stereo not drawn) [Nadolol],SARS-CoV-2 replication fitness (viral gene copies in cell supernatant),[1],didn't affect
